Source: the NIST ThermoML archive (doi:10.1021/je049534w)
“And” between values parts separate entries of the source, which are not always exact repeats. Equal entries are not always repeated. ± gives the expanded uncertainty stated by the source.

Experiments:
[1] = Liquid, Linear variable-path acoustic interferometer
[2] = Solid-liquid equilibrium temperature; settings: Crystal, Speed of sound

**Q.** Which results are given for `CCCCn1cc[n+](C)c1.F[P-](F)(F)(F)(F)F` [1-butyl-3-methylimidazolium hexafluorophosphate]?
**A.** speed of sound ([1]; 283.16 K, 100 kPa): 1455.5 ± 7.8 m/s and 1457.6 ± 7.8 m/s; speed of sound ([1]; 283.16 K, 5088 kPa): 1468.6 ± 7.8 m/s; speed of sound ([1]; 283.16 K, 5131 kPa): 1470.6 ± 7.8 m/s; speed of sound ([1]; 283.16 K, 10263 kPa): 1481.8 ± 7.9 m/s; speed of sound ([1]; 283.16 K, 20249 kPa): 1506.7 ± 8 m/s; speed of sound ([1]; 283.16 K, 29954 kPa): 1529.9 ± 8 m/s; speed of sound ([1]; 283.16 K, 29995 kPa): 1532.5 ± 8 m/s; speed of sound ([1]; 283.16 K, 44961 kPa): 1564.2 ± 8.1 m/s; speed of sound ([1]; 283.16 K, 59682 kPa): 1596.7 ± 8.2 m/s; speed of sound ([1]; 283.16 K, 59829 kPa): 1599.6 ± 8.3 m/s; speed of sound ([1]; 283.16 K, 79904 kPa): 1638.6 ± 8.4 m/s; speed of sound ([1]; 283.16 K, 99077 kPa): 1677.1 ± 8.5 m/s; speed of sound ([1]; 283.16 K, 124179 kPa): 1724.4 ± 8.7 m/s; speed of sound ([1]; 283.16 K, 150925 kPa): 1772.6 ± 8.8 m/s; speed of sound ([1]; 291.15 K, 100 kPa): 1440.2 ± 7.8 m/s; speed of sound ([1]; 291.15 K, 5069 kPa): 1453.3 ± 7.8 m/s; speed of sound ([1]; 291.15 K, 10166 kPa): 1466.6 ± 7.8 m/s; speed of sound ([1]; 291.15 K, 20400 kPa): 1492.4 ± 7.9 m/s; speed of sound ([1]; 291.15 K, 30019 kPa): 1515.7 ± 8 m/s; speed of sound ([1]; 291.15 K, 44920 kPa): 1550 ± 8.1 m/s; speed of sound ([1]; 291.15 K, 59912 kPa): 1583.2 ± 8.2 m/s; speed of sound ([1]; 293.16 K, 100 kPa): 1432.8 ± 7.7 m/s and 1431.6 ± 7.7 m/s; speed of sound ([1]; 293.16 K, 5157 kPa): 1446.5 ± 7.8 m/s; speed of sound ([1]; 293.16 K, 10195 kPa): 1459 ± 7.8 m/s; speed of sound ([1]; 293.16 K, 20215 kPa): 1484.2 ± 7.9 m/s; speed of sound ([1]; 293.16 K, 29959 kPa): 1507.9 ± 8 m/s; speed of sound ([1]; 293.16 K, 44757 kPa): 1542.2 ± 8.1 m/s; speed of sound ([1]; 293.16 K, 59732 kPa): 1574.7 ± 8.2 m/s; speed of sound ([1]; 293.16 K, 78627 kPa): 1613.8 ± 8.3 m/s; speed of sound ([1]; 293.16 K, 99149 kPa): 1654.5 ± 8.4 m/s; speed of sound ([1]; 294.16 K, 5125 kPa): 1444.5 ± 7.8 m/s; speed of sound ([1]; 294.16 K, 10105 kPa): 1457.2 ± 7.8 m/s; speed of sound ([1]; 294.16 K, 20357 kPa): 1483.2 ± 7.9 m/s; speed of sound ([1]; 294.16 K, 29785 kPa): 1506 ± 8 m/s; speed of sound ([1]; 303.16 K, 100 kPa): 1410.3 ± 7.7 m/s; speed of sound ([1]; 303.16 K, 5078 kPa): 1423.5 ± 7.7 m/s; speed of sound ([1]; 303.16 K, 10204 kPa): 1437.1 ± 7.7 m/s; speed of sound ([1]; 303.16 K, 20225 kPa): 1462.8 ± 7.8 m/s; speed of sound ([1]; 303.16 K, 44714 kPa): 1521.3 ± 8 m/s; speed of sound ([1]; 303.16 K, 59773 kPa): 1554.6 ± 8.1 m/s; speed of sound ([1]; 303.16 K, 98921 kPa): 1634.4 ± 8.4 m/s; speed of sound ([1]; 313.16 K, 100 kPa): 1389.5 ± 7.6 m/s; speed of sound ([1]; 313.16 K, 5010 kPa): 1402.8 ± 7.6 m/s; speed of sound ([1]; 313.16 K, 10043 kPa): 1416.4 ± 7.7 m/s; speed of sound ([1]; 313.16 K, 20319 kPa): 1443.3 ± 7.8 m/s; speed of sound ([1]; 313.16 K, 41702 kPa): 1495.1 ± 7.9 m/s; speed of sound ([1]; 313.16 K, 44866 kPa): 1502.9 ± 8 m/s; speed of sound ([1]; 313.16 K, 59754 kPa): 1536.3 ± 8.1 m/s; speed of sound ([1]; 313.16 K, 79721 kPa): 1578.6 ± 8.2 m/s; speed of sound ([1]; 313.16 K, 99097 kPa): 1617.4 ± 8.3 m/s; speed of sound ([1]; 313.16 K, 125283 kPa): 1662.2 ± 8.5 m/s; speed of sound ([1]; 323.25 K, 100 kPa): 1368 ± 7.5 m/s; speed of sound ([1]; 323.25 K, 5061 kPa): 1381.8 ± 7.6 m/s; speed of sound ([1]; 323.25 K, 9942 kPa): 1395.4 ± 7.6 m/s; speed of sound ([1]; 323.25 K, 20234 kPa): 1422.7 ± 7.7 m/s; speed of sound ([1]; 323.25 K, 29721 kPa): 1446.8 ± 7.8 m/s; speed of sound ([1]; 323.25 K, 44935 kPa): 1482.2 ± 7.9 m/s; speed of sound ([1]; 323.25 K, 59711 kPa): 1516 ± 8 m/s; speed of sound ([1]; 323.25 K, 79553 kPa): 1557.9 ± 8.1 m/s; speed of sound ([1]; 323.25 K, 98901 kPa): 1592.5 ± 8.2 m/s; Solid-liquid equilibrium temperature ([2]; 100 kPa): 285 ± 0.44 K; Solid-liquid equilibrium temperature ([2]; 34000 kPa): 291.15 ± 0.72 K; Solid-liquid equilibrium temperature ([2]; 40200 kPa): 293.15 ± 0.77 K; Solid-liquid equilibrium temperature ([2]; 42500 kPa): 294.16 ± 0.94 K; Solid-liquid equilibrium temperature ([2]; 55000 kPa): 296.15 ± 0.51 K; Solid-liquid equilibrium temperature ([2]; 88900 kPa): 303.15 ± 0.54 K
